# From patent publication US20140349340A1, “MBTH-LIKE PROTEINS IN THE PRODUCTION OF SEMI SYNTHETIC ANTIBIOTICS” (DSM SINOCHEM PHARMACEUTICALS NETHERLANDS B.V., priority 2012, published 2014)
# Experiments:
# Assay type in all cases: biochemical
# [1] = PPi release assay, adenylation activity with D-hydroxyphenylglycine
# Text: (§1) These assays use inorganic pyrophosphatases to convert PPi produced during aminoacyl-AMP formation to orthophosphate (Pi). To measure Pi concentrations some of these assays use molybdate/malachite green reagent for colorimetric detection (McQuade et al. 2008) or, as used in the context of the present invention, a shift in absorbance maximum by conversion of 7-methyl-6-thioguanosine (MESG) by purine nucleoside phosphorylase (Ehmann D. E. et al. (Proc. Natl. Acad. Sci. (2000) 97, 2509-2514) or Daniel & Aldrich (Anal. Biochem. (2010) 404, 56-63)).
# (§2) To determine the adenylation activity of the adenylation domains, the Enzchek® pyrophosphate assay kit (Life Technologies) was used as described by Ehmann D. E. et al. (Proc Nat Acad Science (2000) 97, 2509-2514) with small modifications. The reactions were performed 96 wells UV/Vis transparent plates (BD Falcon). The reaction mixture comprises 50 mM HEPES pH 8.0, 10 mM MgCl2, 5 mM ATP, 75 mM DTT, 0.03 U Inorganic Pyrophosphatase (IP), 1 U Purine Nucleoside Phosphorylase (PNP) and 0.2 mM MESG in a volume of 70 μl. Next 20 μl (around 0.5-2 μM final concentration) of purified A(T) domain, with or without co-purification of the MbtH like helper protein was added and the reaction was pre-incubated for 15 minutes at RT to reduce contaminating Pi. Following the pre-incubation, 10 μl of a 10 mM or 1 mM solution of the appropriate amino acid depending on the performed specificity determination was added to initiate the adenylation reaction and the absorbance at 360 nm was measured using a TECAN I Control spectrophotometer. Absorbance measurements were made every 5 to 10 min over a period of up to 240 min. A reaction with addition of 10 μl MilliQ water instead was used to determine and subtract the background absorbance. As substrates the following amino acids were used: D- or L-phenylalanine, D- or L-hydroxyphenylglycine, D- or L-phenylglycine, L-tryptophan, L-valine, L-cysteine, and L-leucine.
# [2] = PPi release assay, adenylation activity with D-phenylalanine; details: substrate D-phenylalanine
# Text: as §1, §2
# [3] = PPi release assay, adenylation activity with L-hydroxyphenylglycine; details: for adenylation activity (PPi release assay) / adenylation activity (absorption 360 nm, PPi release assay): substrate L-hydroxyphenylglycine
# Text: as §1, §2
# [4] = PPi release assay, adenylation activity with L-phenylglycine; details: for Formed PPi: substrate L-PG 1 mM
# Text: as §1, §2
# [5] = PPi release assay, adenylation activity with D-phenylglycine; details: for Formed PPi: substrate D-PG 1 mM
# Text: as §1, §2
# [6] = PPi release assay, adenylation activity with L-phenylalanine; details: substrate L-phenylalanine
# Text: as §1, §2
# [7] = substrate D-hydroxyphenylglycine, protein alone, without MbtH-like protein
# [8] = co-purified with Tcp13, or Tcp17 or VMbtH
# [9] = protein alone, without MbtH-like protein
# [10] = co-purified with MbtH-like protein Tcp13
# [11] = co-purified with MbtH-like protein Tcp 13
# [12] = co-purified with MbtH-like protein Tcp 17
# [13] = co-purified with MbtH-like protein VMbtH
substance,measurement,setting,value
Teg7_M1_A: purified adenylation domain of Teg7 module M1 (SEQ ID NO: 27); uncultured soil bacterium,adenylation activity (PPi release assay),"[1]; substrate D-hydroxyphenylglycine, co-purified with Tcp13, or Tcp17 or VMbtH",no adenylation activity
same,"adenylation activity (absorption 360 nm, PPi release assay)",[1]; [7],No adenylation activity
same,adenylation activity (PPi release assay),[2]; [8],no adenylation activity
same,"adenylation activity (absorption 360 nm, PPi release assay)",[2]; [9],No adenylation activity
same,adenylation activity (PPi release assay),[3]; co-purified with MbtH-like protein TMbtH,the same specificity
same,adenylation activity (PPi release assay),[3]; [8],no adenylation activity
same,"adenylation activity (absorption 360 nm, PPi release assay)",[3]; [9],No adenylation activity
same,adenylation activity (PPi release assay),"[4]; substrate L-phenylglycine, co-purified with Tcp13, or Tcp17 or VMbtH",no adenylation activity
same,adenylation activity (PPi release assay),"[5]; substrate D-phenylglycine, co-purified with Tcp13, or Tcp17 or VMbtH",no adenylation activity
same,adenylation activity (PPi release assay),[6]; [8],no adenylation activity
same,"adenylation activity (absorption 360 nm, PPi release assay)",[6]; [9],No adenylation activity
"Veg8_M1_A: purified adenylation domain of Veg8 module M1 (SEQ ID NO: 6), maltose binding protein fusion, His-tag; uncultured soil bacterium",Formed PPi,"[1]; substrate D-HPG 0.1 mM, co-purified with MbtH-like protein Tcp 13",0.14 mM/min/mM enzyme
same,Formed PPi,"[1]; substrate D-HPG 0.1 mM, co-purified with MbtH-like protein Tcp 17",0.17 mM/min/mM enzyme
same,Formed PPi,"[1]; substrate D-HPG 0.1 mM, co-purified with MbtH-like protein VMbtH",0.18 mM/min/mM enzyme
same,Formed PPi,"[1]; substrate D-HPG 1 mM, co-purified with MbtH-like protein Tcp 13",0.92 mM/min/mM enzyme
same,Formed PPi,"[1]; substrate D-HPG 1 mM, co-purified with MbtH-like protein Tcp 17",1.03 mM/min/mM enzyme
same,Formed PPi,"[1]; substrate D-HPG 1 mM, co-purified with MbtH-like protein VMbtH",1.39 mM/min/mM enzyme
same,"adenylation activity (absorption 360 nm, PPi release assay)","[1]; substrate D-hydroxyphenylglycine, co-purified with MbtH-like protein Tcp13",clear adenylation activity
same,"adenylation activity (absorption 360 nm, PPi release assay)",[1]; [7],no activity
same,"adenylation activity (absorption 360 nm, PPi release assay)",[2]; [10],no activity
same,"adenylation activity (absorption 360 nm, PPi release assay)",[2]; [9],no activity
same,Formed PPi,"[3]; substrate L-HPG 0.1 mM, co-purified with MbtH-like protein Tcp 13",0.56 mM/min/mM enzyme
same,Formed PPi,"[3]; substrate L-HPG 0.1 mM, co-purified with MbtH-like protein Tcp 17",0.70 mM/min/mM enzyme
same,Formed PPi,"[3]; substrate L-HPG 0.1 mM, co-purified with MbtH-like protein VMbtH",0.61 mM/min/mM enzyme
same,Formed PPi,"[3]; substrate L-HPG 1 mM, co-purified with MbtH-like protein Tcp 13",0.59 mM/min/mM enzyme
same,Formed PPi,"[3]; substrate L-HPG 1 mM, co-purified with MbtH-like protein Tcp 17",0.64 mM/min/mM enzyme
same,Formed PPi,"[3]; substrate L-HPG 1 mM, co-purified with MbtH-like protein VMbtH",0.61 mM/min/mM enzyme
same,"adenylation activity (absorption 360 nm, PPi release assay)",[3]; [10],clear adenylation activity
same,"adenylation activity (absorption 360 nm, PPi release assay)",[3]; [9],very minor adenylation activity
same,Formed PPi,[4]; [11],0.17 mM/min/mM enzyme
same,Formed PPi,[4]; [12],0.14 mM/min/mM enzyme
same,Formed PPi,[4]; [13],0.20 mM/min/mM enzyme
same,Formed PPi,[5]; [11],0.01 mM/min/mM enzyme
same,Formed PPi,[5]; [12],0.02 mM/min/mM enzyme
same,Formed PPi,[5]; [13],0.02 mM/min/mM enzyme
same,"adenylation activity (absorption 360 nm, PPi release assay)",[6]; [10],no activity
same,"adenylation activity (absorption 360 nm, PPi release assay)",[6]; [9],no activity
